The test system of assay [1] is Green Peach Aphid (Myzus persicae). Nature of the assay: Bioassay for Green Peach Aphid (GPA) (MYZUPE), foliar spray on cabbage seedlings. The note with it: 72 h, 200 ppm foliar spray, graded after three days, Abbott corrected % control, read-out: % Control (or Mortality) rating, GPA. The assay is classed as in vivo. As for the experimental part:
Cabbage seedlings grown in 3-inch pots, with 2-3 small (3-5 cm) true leaves, were used as test substrate. The seedlings were infested with 20-50 GPA (wingless adult and nymph stages) one day prior to chemical application. Four pots with individual seedlings were used for each treatment. Test compounds (2 mg) were dissolved in 2 mL of acetone/methanol (1:1) solvent, forming stock solutions of 1000 ppm test compound. The stock solutions were diluted 5× with 0.025% Tween 20 in H2O to obtain the solution at 200 ppm test compound. A hand-held aspirator-type sprayer was used for spraying a solution to both sides of […] leaves until runoff. Reference plants (solvent check) were sprayed with the diluent only containing 20% by volume of acetone/methanol (1:1) solvent. Treated plants were held in a holding room for three days at approximately 25° C. and ambient relative humidity (RH) prior to grading. Evaluation was conducted by counting the number of live aphids per plant under a microscope. Percent control was measured by using Abbott's correction formula (W. S. Abbott, “A Method of Computing the Effectiveness of an Insecticide,” J. Econ. Entomol. 18 (1925), pp. 265-267) as follows. Corrected % Control=100*(X−Y)/X
X=No. of live aphids on solvent check plants and
Y=No. of live aphids on treated plants
(§1) Biological Data for Green Peach Aphid (GPA) (MYZUPE) and Sweetpotato Whitefly-crawler (WF) (BEMITA)” (See Table Section).

The test system of assay [2] is Sweetpotato Whitefly-Crawler (Bemisia tabaci). Nature of the assay: Insecticidal test for Sweetpotato Whitefly-Crawler (WF) (BEMITA) in foliar spray assay on cotton plants. The following applies: 216 h, 200 ppm foliar spray, graded after 9 days, Abbott corrected % control, read-out: % Control (or Mortality) rating, WF. It counts as in vivo. As for the experimental part: Cotton plants (Gossypium hirsutum) grown in 3-inch pots, with 1 small (4-5 cm) true leaves, were used as test substrate. The plants were infested with 200-400 whitefly eggs 4-5 days prior to chemical application. Four pots with individual plants were used for each treatment. Test compounds (2 mg) were dissolved in 1 mL of acetone solvent, forming stock solutions of 2000 ppm test compound. The stock solutions were diluted 10× with 0.025% Tween 20 in H2O (diluents) to obtain the solution at 200 ppm test compound. A hand-held aspirator-type sprayer was used for spraying a solution to both sides of cotton leaves until runoff. Reference plants (solvent check) were sprayed with the diluent only containing 10% by volume of acetone solvent. Treated plants were held in a holding room for 9 days at approximately 25° C. and ambient relative humidity (RH) prior to grading. Evaluation was conducted by counting the number of live 3-4 nymph stage per plant under a microscope. Percent control was measured by using Abbott's correction formula (W. S. Abbott, “A Method of Computing the Effectiveness of an Insecticide,” J. Econ. Entomol. 18 (1925), pp. 265-267) as follows. Corrected % Control=100*(X−Y)/X
X=No. of live nymphs on solvent check plants and
Y=No. of live nymphs on treated plants.
as §1

Consider 22 molecules from patent US9549560B2, “Pesticidal compositions and related methods” (DOW AGROSCIENCES LLC, priority 2013, dated 2017).

One may read the mortality as the share of the test organisms that died. As to `CCN(C(=O)CC[S+]([O-])CCC(F)(F)F)c1cn(-c2cc(F)c[n+]([O-])c2)nc1Cl` (centres unmarked) [Compound P37, 3-(3-Chloro-4-(N-ethyl-3-((3,3,3-trilluoropropyl)sulfinyl)propanamido)-1H-pyrazol-1-yl)-5-fluoropyridine 1-oxide], the mortality at 200 ppm in assay [1] and in assay [2] was 80 to 100% throughout.

As to `CCN(C(=O)CCSCC1CC1(F)F)c1cn(-c2ccc[n+]([O-])c2)nc1Cl` (centres unmarked) [Compound P48, 3-(3-Chloro-4-(3-(((2,2-difluorocyclopropyl)methyl)thio)-N-ethylpropanamido)-1H-pyrazol-1-yl)pyridine 1-oxide], the mortality at 200 ppm in assay [1] and in assay [2] was 80 to 100% each time.

As for `CCN(C(=O)CC[S+]([O-])CC1CC1(F)F)c1cn(-c2ccc[n+]([O-])c2)nc1Cl` (centres unmarked) [Compound P49, 3-(3-Chloro-4-(3-(((2,2-difluorocyclopropyl)methyl)sulfinyl)-N-ethylpropanamido)-1H-pyrazol-1-yl)pyridine 1-oxide], the mortality at 200 ppm in assay [1] and in assay [2] was 80 to 100% throughout.

As to `CCN(C(=O)CCSCC(F)(F)F)c1cn(-c2ccc[n+]([O-])c2)nc1Cl` [Compound P50, 3-(3-chloro-4-(N-ethyl-3-((2,2,2-trifluoroethyl)thio)propanamido)-1H-pyrazol-1-yl)pyridine 1-oxide], the mortality at 200 ppm in assay [1] and in assay [2] was 80 to 100% throughout.

As to `CCN(C(=O)CCSCCCC(F)(F)F)c1cn(-c2ccc[n+]([O-])c2)nc1Cl` [Compound P53, 3-(3-Chloro-4-(N-ethyl-3-((4,4,4-trifluorobutyl)thio)propanamido)-1H-pyrazol-1-yl)pyridine 1-oxide], the mortality at 200 ppm in assay [1] and in assay [2] was 80 to 100% each time.

For `CCN(C(=O)CC[S+]([O-])CCCC(F)(F)F)c1cn(-c2ccc[n+]([O-])c2)nc1Cl` (centres unmarked) [Compound P54, 3-(3-Chloro-4-(N-ethyl-3-((4,4,4-trilluorobutyl)sulfinyl)propanamido)-1H-pyrazol-1-yl)pyridine 1-oxide], the mortality at 200 ppm in assay [1] and in assay [2] was 80 to 100% each time.

Turning to `CN(C(=O)CCSCC1CC1(F)F)c1cn(-c2ccc[n+]([O-])c2)nc1Cl` (centres unmarked) [Compound P56, 3-(3-Chloro-4-(3-(((2,2-difluorocyclopropyl)methyl)thio)-N-methylpropanamido)-1H-pyrazol-1-yl)pyridine 1-oxide], the mortality at 200 ppm in assay [1] and in assay [2] was 80 to 100% in each case.

As to `CN(C(=O)CC[S+]([O-])CC1CC1(F)F)c1cn(-c2ccc[n+]([O-])c2)nc1Cl` (centres unmarked) [Compound P57, 3-(3-Chloro-4-(3-(((2,2-difluorocyclopropyl)methyl)sulfinyl)-N-methylpropanamido)-1H-pyrazol-1-yl)pyridine 1-oxide], the mortality at 200 ppm in assay [1] and in assay [2] was 80 to 100% each time.

Take `CN(C(=O)CCSCCCC(F)(F)F)c1cn(-c2ccc[n+]([O-])c2)nc1Cl` [Compound P62, 3-(3-Chloro-4-(N-methyl-3-((4,4,4-trifluorobutyl)thio)propanamido)-1H-pyrazol-1-yl)pyridine 1-oxide]: the mortality at 200 ppm in assay [1] and in assay [2] was 80 to 100% throughout.

Regarding `CN(C(=O)CC[S+]([O-])CCCC(F)(F)F)c1cn(-c2ccc[n+]([O-])c2)nc1Cl` (centres unmarked) [Compound P63, 3-(3-Chloro-4-(N-methyl-3-((4,4,4-trifluorobutyl)sulfinyl)propanamido)-1H-pyrazol-1-yl)pyridine 1-oxide], the mortality at 200 ppm in assay [1] and in assay [2] was 80 to 100% each time.

Consider `C#CCN(C(=O)CCSCC1CC1(F)F)c1cn(-c2ccc[n+]([O-])c2)nc1Cl` (centres unmarked) [Compound P65, 3-(3-Chloro-4-(3-(((2,2-difluorocyclopropyl)methyl)thio)-N-(prop-2-yn-1-yl)propanamido)-1H-pyrazol-1-yl)pyridine 1-oxide], for which the mortality at 200 ppm in assay [1] and in assay [2] was 80 to 100% in each case.

Regarding `C#CCN(C(=O)CC[S+]([O-])CC1CC1(F)F)c1cn(-c2ccc[n+]([O-])c2)nc1Cl` (centres unmarked) [Compound P66, 3-(3-Chloro-4-(3-(((2,2-difluorocyclopropyl)methyl)sulfinyl)-N-(prop-2-yn-1-yl)propanamido)-1H-pyrazol-1-yl)pyridine 1-oxide], the mortality at 200 ppm in assay [1] and in assay [2] was 80 to 100% throughout.

Consider `C#CCN(C(=O)CCSCCCC(F)(F)F)c1cn(-c2ccc[n+]([O-])c2)nc1Cl` [Compound P71, 3-(3-Chloro-4-(N-(prop-2-yn-1-yl)-3-((4,4,4-trifluorobutyl)thio)propanamido)-1H-pyrazol-1-yl)pyridine 1-oxide], for which the mortality at 200 ppm in assay [1] and in assay [2] was 80 to 100% in each case.

As to `C#CCN(C(=O)CC[S+]([O-])CCCC(F)(F)F)c1cn(-c2ccc[n+]([O-])c2)nc1Cl` (centres unmarked) [Compound P72, 3-(3-Chloro-4-(N-(prop-2-yn-1-yl)-3-((4,4,4-trifluorobutyl)sulfinyl)propanamido)-1H-pyrazol-1-yl)pyridine 1-oxide], the mortality at 200 ppm in assay [1] and in assay [2] was 80 to 100% each time.

On to `CCN(C(=O)CCSCC1CC1(F)F)c1cn(-c2ccc[n+]([O-])c2)nc1C` (centres unmarked) [Compound P74, 3-(4-(3-(((2,2-Difluorocyclopropyl)methyl)thio)-N-ethylpropanamido)-3-methyl-1H-pyrazol-1-yl)pyridine 1-oxide], for which the mortality at 200 ppm in assay [1] and in assay [2] was 80 to 100% in each case.

For the molecule `CCN(C(=O)CC[S+]([O-])CC1CC1(F)F)c1cn(-c2ccc[n+]([O-])c2)nc1C` (centres unmarked) [Compound P75, 3-(4-(3-(((2,2-Difluorocyclopropyl)methyl)sulfinyl)-N-ethylpropan-amido)-3-methyl-1H-pyrazol-1-yl)pyridine 1-oxide], the mortality at 200 ppm in assay [1] and in assay [2] was 80 to 100% in each case.

Take `CCN(C(=O)CCSCCCC(F)(F)F)c1cn(-c2ccc[n+]([O-])c2)nc1C` [Compound P80, 3-(4-(N-Ethyl-3-((4,4,4-trifluorobutyl)thio)propanamido)-3-methyl-1H-pyrazol-1-yl)pyridine 1-oxide]: the mortality at 200 ppm in assay [1] and in assay [2] was 80 to 100% throughout.

For the molecule `CCN(C(=O)CC[S+]([O-])CCCC(F)(F)F)c1cn(-c2ccc[n+]([O-])c2)nc1C` (centres unmarked) [Compound P81, 3-(4-(N-Ethyl-3-((4,4,4-trilluorobutyl)sulfinyl)propanamido)-3-methyl-1H-pyrazol-1-yl)pyridine 1-oxide], the mortality at 200 ppm in assay [1] and in assay [2] was 80 to 100% throughout.

As for `CCN(C(=O)CCSCC1CC1(F)F)c1cn(-c2cc(F)c[n+]([O-])c2)nc1Cl` (centres unmarked) [Compound P92, 3-(3-Chloro-4-(3-(((2,2-difluorocyclopropyl)methyl)thio)-N-ethylpropanamido)-1H-pyrazol-1-yl)-5-fluoropyridine 1-oxide], the mortality at 200 ppm in assay [1] and in assay [2] was 80 to 100% throughout.

On to `CCN(C(=O)CC[S+]([O-])CC1CC1(F)F)c1cn(-c2cc(F)c[n+]([O-])c2)nc1Cl` (centres unmarked) [Compound P93, 3-(3-Chloro-4-(3-(((2,2-difluorocyclopropyl)methyl)sulfinyl)-N-ethylpropanamido)-1H-pyrazol-1-yl)-5-fluoropyridine 1-oxide], for which the mortality at 200 ppm in assay [1] and in assay [2] was 80 to 100% in each case.

Regarding `CCN(C(=O)CCSCCCC(F)(F)F)c1cn(-c2cc(F)c[n+]([O-])c2)nc1Cl` [Compound P98, 3-(3-Chloro-4-(N-ethyl-3-((4,4,4-trilluorobutyl)thio)propanamido)-1H-pyrazol-1-yl)-5-fluoropyridine 1-oxide], the mortality at 200 ppm in assay [1] lay in the range of 0 to 80%; in assay [2] it was 80 to 100%.

For the molecule `CCN(C(=O)CC[S+]([O-])CCCC(F)(F)F)c1cn(-c2cc(F)c[n+]([O-])c2)nc1Cl` (centres unmarked) [Compound P99, 3-(3-Chloro-4-(N-ethyl-3-((4,4,4-trilluorobutyl)sulfinyl)propanamido)-1H-pyrazol-1-yl)-5-fluoropyridine 1-oxide], the mortality at 200 ppm in assay [1] and in assay [2] was 80 to 100% throughout.
